In one data set the test system is HCT-116 cells. The data set is described as follows: HCT-116 CellTiter-Glo 3D cell proliferation assay. The format is cell-based. The settings on record: Homo sapiens. The procedure:
HCT-116 CellTiter-Glo 3D Cell Proliferation Assay
The human HCT-116 colorectal carcinoma cell line (ATCC CCL-247) endogenously expresses the KRAS^G13D mutation, which leads to enhanced survival and proliferative signaling. […] On the first day, HCT-116 cells were harvested, resuspended in growth medium (McCoys5A with Glutamax (Life Technologies 36600021) with 10% heat-inactivated fetal bovine serum (Sigma F9665)), and counted. Cells were plated in 100 μl per well in each well of a Corning 7007 96-well clear round bottom Ultra-Low Attachment plate (VWR 444-1020) to a final density of 1000 cells per well. Cells were seeded for pre- and post-treatment readouts. The cells were then incubated at 37° C. and 5% CO2 for 3 days (72 hours) to allow spheroid formation. After 72 hours, the plate seeded for a pre-treatment read was removed from the incubator to allow equilibration to room temperature for 30 minutes, before CellTitre-Glo® reagent was added to each well. The plates were incubated at room temperature for 5 minutes shaking at 300 rpm, followed by an incubation of 25 minutes on the benchtop before being read on the Envision reader (Perkin Elmer) as described below. On the same day, the cells plated for the post-treatment readout were dosed with compounds to produce a 9-point dose response, where the top concentration was 15 μM and following concentrations were at 1/2 log dilution intervals. These cells were subsequently incubated at 37° C. and 5% CO2 for another 4 days (96 hours). After 4 days, the plate was removed from the incubator to allow equilibration to room temperature for 30 minutes and treated with CellTitre Glo® reagent as stated above. […] The CellTitre Glo® reagent lyses the cells and contains luciferin and a luciferase (Ultra-Glo™ Recombinant Luciferase), which in the presence of ATP and oxygen can produce bioluminescence from luciferin. Therefore, plates were read on an EnVision reader (Perkin Elmer) and luminescence signals were recorded. Cell proliferation was determined on 4 days after dosing relative to the pre-treatment read. All data were analyzed using the Dotmatics or GraphPad Prism software packages. Inhibition of proliferation was assessed by determination of the GI50 value, which was defined as the concentration of compound required to decrease the level of cell proliferation by 50% when compared to DMSO control.
Background: ATP-based viability assays read luminescence as a measure of living cells.

The next data set is described as follows: FeSSIF solubility assay. To be noted: fed state simulated intestinal fluid (FeSSIF), thermodynamic from solid, pH 5 acetate buffer, 37° C., read-out: FESSIF Sol. The format is physicochemical. Put shortly: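 FeSSIF (pH 5 acetate buffer, 1 mL) was added to 1.0 mg solid compound and shaken at 650 rpm and 37 °C for 24 h. After filtration, dissolved compound was quantified by LC-UV against a 250 μM calibration standard.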

A further data set relates to WiDr cells. Description: WiDr CellTiter-Glo 3D cell proliferation assay. The data set is classed as cell-based. To be noted: Homo sapiens, read-out: 3D WiDr pGI50 (converted).
Where [1] appears, read: HCT-116, HCT116 cells, 3D proliferation, read-out: 3D HCT116 pGI50 (converted).

The values that follow come from patent publication US12304912B2, “Fused bicyclic RAF inhibitors and methods for use thereof” (Jazz Pharmaceuticals Ireland Limited, priority 2020, dated 2025).

Values after ≈ are worked out from the molar mass of the structure shown. Where two headings read alike, the source gives them in different places.

`O=C(Nc1cc(Oc2ccc3c(c2)CC(c2nc(-c4ccccc4)c[nH]2)CO3)ncn1)C1CC1` (stereo not drawn) [Compound 151, N-[6-[3-(4-phenyl-1H-imidazol-2-yl)chroman-6-yl]oxypyrimidin-4-yl]cyclopropanecarboxamide]: the GI50 was 380 nM in the data set on HCT-116 cells (HCT-116, read-out: 3D HCT116 pGI50 (converted)) and 1150 nM in the data set with WiDr cells (WiDr). Also, the solubility thermodynamic at 24 h in “FeSSIF solubility assay” was 86.6 µg/mL (≈ 191 µM).

Regarding `O=C(CN1CCCC1)Nc1cc(Oc2ccc3c(c2)CC(c2nc(-c4ccccc4)c[nH]2)CO3)ccn1` (stereo not drawn) [Compound 152], the GI50 with HCT-116 cells (setting [1]) was 832 nM; in the data set with WiDr cells (WiDr cells, 3D proliferation), 5620 nM. The solubility thermodynamic at 24 h in “FeSSIF solubility assay” was 997 µg/mL (≈ 2010 µM).

Consider `O=C(CN1CC(O)C1)Nc1cc(Oc2ccc3c(c2)CC(c2nc(-c4ccccc4)c[nH]2)CO3)ccn1` (stereo not drawn) [Compound 153], for which the GI50 was 427 nM in the data set on HCT-116 cells (setting [1]) and 5620 nM in the data set on WiDr cells (WiDr cells, 3D proliferation). In addition, the solubility thermodynamic at 24 h in the data set “FeSSIF solubility assay” was 336 µg/mL (≈ 675 µM).

For `O=C(Cn1cncn1)Nc1cc(Oc2ccc3c(c2)CC(c2nc(-c4ccccc4)c[nH]2)CO3)ccn1` (stereo not drawn) [Compound 154], the GI50 was 61.7 nM with HCT-116 cells (setting [1]) and 661 nM in the data set with WiDr cells (WiDr cells, 3D proliferation). Besides, the solubility thermodynamic at 24 h in the data set “FeSSIF solubility assay” is 171 µg/mL (≈ 346 µM).

As to `O=C(Nc1cc(Oc2ccc3c(c2)CC(c2nc(-c4ccc(F)cc4)c[nH]2)CO3)ccn1)C1CC1` (stereo not drawn) [Compound 155, N-[4-[3-[4-(4-fluorophenyl)-1H-imidazol-2-yl]chroman-6-yl]oxy-2-pyridyl]cyclopropanecarboxamide], the GI50 in the data set on HCT-116 cells (setting [1]) is 100 nM; in the data set with WiDr cells (WiDr cells, 3D proliferation), 631 nM. In addition, the solubility thermodynamic at 24 h in “FeSSIF solubility assay” is 124 µg/mL (≈ 263 µM).

As to `CC(=O)Nc1cc(Oc2ccc3c(c2)CC(c2nc(-c4ccccc4)c[nH]2)CO3)ccn1` (stereo not drawn) [Compound 156, N-[4-[3-(4-phenyl-1H-imidazol-2-yl)chroman-6-yl]oxy-2-pyridyl]acetamide], the GI50 in the data set on HCT-116 cells (setting [1]) was 89.1 nM; in the data set on WiDr cells (WiDr cells, 3D proliferation), 269 nM. Moreover, the solubility thermodynamic at 24 h in the data set “FeSSIF solubility assay” was 296 µg/mL (≈ 695 µM).

`CC1CC1C(=O)Nc1cc(Oc2ccc3c(c2)CC(c2nc(-c4ccccc4)c[nH]2)CO3)ccn1` (stereo not drawn) [Compound 157]: the GI50 is 263 nM in the data set with HCT-116 cells (setting [1]) and 661 nM with WiDr cells (WiDr cells, 3D proliferation). For the same molecule, the solubility thermodynamic at 24 h in “FeSSIF solubility assay” is 116 µg/mL (≈ 249 µM).

As to `O=C1CCc2c(Oc3ccc4c(c3)CN(c3nc5cc(C(F)(F)F)ccc5[nH]3)CC4)ccnc2N1` [Compound 160], the GI50 in the data set with HCT-116 cells (setting [1]) was 617 nM; with WiDr cells (WiDr cells, 3D proliferation), 2090 nM. Further, the solubility thermodynamic at 24 h in the data set “FeSSIF solubility assay” was 3 µg/mL (≈ 6.26 µM).
